Values joined by “and” are separate entries in the source; they are usually repeats but may differ in a detail not shown here. Identical values can stand only once. “Also recorded” adds a separate entry of the source.
Legend:
[1] = Relative stability of the crystalline form; format: physicochemical
[2] = test system: Peripheral blood mononuclear cells (PBMC); test: Cytokine induction in human cells (in vitro human blood cell system); format: cell-based; conditions: generally tested at 30-0.014 μM, incubated 18 to 24 hours, ELISA
Description: An in vitro human blood cell system is used to assess cytokine induction. Activity is based on the measurement of interferon (α) and tumor necrosis factor (α) (IFN and TNF, respectively) secreted into culture media as described by Testerman et al. in “Cytokine Induction by the Immunomodulators Imiquimod and S-27609,” Journal of Leukocyte Biology, 58, 365-372 (September, 1995).
Whole blood from healthy human donors is collected by venipuncture into EDTA vacutainer tubes. Peripheral blood mononuclear cells (PBMC) are separated from whole blood by density gradient centrifugation using HISTOPAQUE-1077. Blood is diluted 1:1 with Dulbecco's Phosphate Buffered Saline (DPBS) or Hank's Balanced Salts Solution (HBSS). […]
Following incubation the plates are centrifuged for 10 minutes at 1000 rpm (approximately 200×g) at 4° C. […] The samples are analyzed for interferon (α) by ELISA and for tumor necrosis factor (α) by ELISA or IGEN Assay.
Interferon (α) concentration is determined by ELISA using a Human Multi-Species kit from PBL Biomedical Laboratories, New Brunswick, N.J. Results are expressed in pg/mL.
Tumor necrosis factor (α) (TNF) concentration is determined using ELISA kits available from Biosource International, Camarillo, Calif. Alternately, the TNF concentration can be determined by ORIGEN M-Series Immunoassay and read on an IGEN M-8 analyzer from IGEN International, Gaithersburg, Md. […]

[3] = Hygroscopicity / water sorption of the crystalline form; format: physicochemical; conditions: experimentally determined
Experimental: The automated analysis of water sorption was performed using a VTI Symmetrical Gravimetric Analyzer Model 100 (SGA-100) operated in Step-Isotherm mode. The sample was exposed to a cycle of relative humidity (RH) conditions at 25° C. The relative humidity was cycled from 5% to 95% and back to 5% in increments of 5%, and the weight of the sample at each stage was recorded after equilibration (less than 0.01% weight change within 5 minutes). The percent weight change of the sample as a function of the relative humidity was plotted to yield the adsorption/desorption isotherm.

cytokine biosynthesis = conditions: U.S. Pat. No. 6,194,425; cited from earlier work

CC(C)Cn1cnc2c(N)nc3cccnc3c21.CCS(=O)(=O)O.O [Form C, 1-(2-methylpropyl)-1H-imidazo[4,5-c][1,5]naphthyridin-4-amine ethanesulfonate monohydrate]
stability of crystalline form [1]: relatively stable

CC(C)Cn1cnc2c(N)nc3cccnc3c21.CCS(=O)(=O)O.O (hydrate or solvate)
melting point: 220 to 221 °C and 221.5 to 223.4 °C

CC(C)Cn1cnc2c(N)nc3cccnc3c21.CCS(=O)(=O)O [1-(2-methylpropyl)-1H-imidazo[4,5-c][1,5]naphthyridin-4-amine ethanesulfonate]
induction of production of interferon α and/or tumor necrosis factor α [2]: induce the production of certain cytokines; also recorded: inducing the production of interferon α and/or tumor necrosis factor α

CC(C)Cn1cnc2c(N)nc3cccnc3c21.CCS(=O)(=O)O [Form B, 1-(2-methylpropyl)-1H-imidazo[4,5-c][1,5]naphthyridin-4-amine ethanesulfonate]
hygroscopicity [3]: hygroscopic

CC(C)Cn1cnc2c(N)nc3cccnc3c21 [1-(2-methylpropyl)-1H-imidazo[4,5-c][1,5]naphthyridin-4-amine]
ability to induce cytokine biosynthesis (cytokine biosynthesis): induce cytokine biosynthesis

Reference: patent US20090124652A1, “Polymorphs of 1-(2-Methylpropyl)-1H-Imidazo[4,5-C][1,5]Naphthyridin-4-Amine Ethane-Sulfonate” (Takeda Pharmaceutical Company Limited, priority 2004, published 2009)
